Consider one compound from PMC10039358, “The 8-bromobaicalein inhibited the replication of dengue, and Zika viruses and targeted the dengue polymerase” (Scientific Reports, 2023).

The test system of one series is various cell lines. As to the kind of experiment: Cytotoxicities in various cell lines, summary. The class given is cell-based. The conditions noted are these: 100 µM, most cells. As for the experimental part:
(§1) Supplementary Fig. S2. […] Briefly, cells were seeded overnight before the compound addition.

A further series has as its target T1, DENV-2 MTase (Dengue virus type 2, UniProt P14340).
T1 construct: N-terminally Histidine-tagged DENV-2 MTase (NHis-MTase) synthesized according to previous description; His-tag (N)
The experiment in a line: MTase-Glo methyltransferase assay. The class given is biochemical. The settings on record: 100 µM compound. The method, then:
The production of DENV2 MTase was performed according to a described protocol. In brief, N-terminally Histidine-tagged DENV-2 MTase (NHis-MTase) synthesized according to previous description[30] (GenScript; Piscataway, NJ, USA) was expressed with 100 µM IPTG (isopropyl-b-D-thiogalactopyranoside) induction, at 27 °C for 16 h. Cell disruption and clarification were sequentially done via sonication and centrifugation at 12,000 rpm for 30 min at 4 °C. His-tagged […] was purified by immobilized metal affinity chromatography (IMAC; Cytiva, Marlborough, MA, USA) with 500 mM imidazole elution. The eluate was dialyzed against 2 L of 50 mM Tris, pH 7.5, 50 mM NaCl, 1 mM MgCl2, 40% glycerol, and 1 mM DTT at 4 °C overnight. The purified enzyme was verified by Coomassie staining and methyltransferase activity.
The MTase assay for inhibition testing was adapted from the previous publications. The MTase assay for inhibition testing was performed using MTase-Glo™ Methyltransferase Assay according to the manufacturer’s protocol (Promega, Madison, Wisconsin, USA). Each reaction was performed in 50 µl reaction using the MTase from DENV-2. […] The luminescence was measured using VICTORTM X3 2030 Multilabel Reader (Perkin Elmer, Waltham, MA, USA). The percent enzyme activity was calculated from two independent experiments by using PRISM version 9 (GraphPad Software, La Jolla, CA, USA).

The nature of series [1]: Cytotoxicity (CC50), MTS assay. The conditions noted are these: human.
Source text: (§2) LLC/MK2 (ATCC® CCL-7), HEK-293 (ATCC® CRL-1573), HepG2 (ATCC® HB-8065), THP-1 (ATCC® TIB-202), Huh-7, RD (ATCC® CCL-136™), and C6/36 (ATCC® CRL-1660) cell lines were propagated and maintained as previously described[16],[21],[40],[53]. Reference DENV1 (16007), DENV2 (NGC, 16681), DENV3 (16562), DENV4 (1036), ZIKV (SV0127/14), and EV-A71 (BRCR) were propagated in Vero, C6/36, and R.D. cells as described[16],[21] Phumee et al.[53]. Cytotoxic concentration (CC50) of LLC/MK2, THP-1, HEK-293, HepG2, Huh-7, and R.D. cells were analyzed as previously described. […] Briefly, cells were seeded overnight and infected with each virus at the multiplicity of infection (M.O.I.) of 0.1 for 1 h. The compound was added during and after infection, and cells were incubated for 72 h. Supernatants were collected for 96-well[55] or a traditional 24-well plaque titration.
as §1

The target in another series is T2, DENV2 NS5/RdRp (Dengue virus type 2, UniProt P29990).
T2 construct: The 73.2 kDa of non-tagged NS5/RdRp was successfully purified by size exclusion chromatography; His-tag (N, cleaved yes); made in house
The experiment in a line: In vitro RdRp assay (SYTO-9 fluorescence). The class given is biochemical, DENV-2. As for the experimental part:
The production of DENV2 RdRp was performed according to a described protocol. In brief, N-terminally Histidine-tagged DENV2 RdRp (NHis-RdRp) was expressed with 200 µM IPTG (isopropyl-b-D-thiogalactopyranoside) induction, at 37 °C for 4 h. Cell disruption and clarification were sequentially done via sonication and centrifugation at 15,000 rpm for 1 h at 4 °C. His-tagged RdRp was purified by immobilized metal affinity chromatography (IMAC) with 175 mM imidazole elution. His-tag was removed by adding 2 units thrombin per 1 mg protein during dialysis for 2 days at 4 °C. The non-tagged RdRp was further purified by size exclusion chromatography. […]
The RdRp assay for inhibition testing was adapted from the previous publications[46],[71]. […] The nascent double-stranded RNA was quantitated by mixing 10 µl of the reaction mixture with 10 µl of 5 µM SYTO-9 dye in Tris–EDTA buffer and incubating at room temperature for 5 min. Fluorescence was measured at excitation and emission wavelengths of 485 nm and 520 nm, respectively, by using EnSight Multimode Plate Reader (Perkin Elmer, Waltham, MA, USA). The IC50 value was calculated from three independent experiments by using PRISM version 9 (GraphPad Software, Inc., La Jolla, CA, USA).

A short description of series [2]: Cytotoxicity (CC50), MTS assay. The conditions noted are these: human.
Source text: as §2, §1
The source holds these as a separate data set. For orientation: Tetrazolium dyes change colour on reduction, which living cells bring about.

T1 sequence (P14340 2493-2755): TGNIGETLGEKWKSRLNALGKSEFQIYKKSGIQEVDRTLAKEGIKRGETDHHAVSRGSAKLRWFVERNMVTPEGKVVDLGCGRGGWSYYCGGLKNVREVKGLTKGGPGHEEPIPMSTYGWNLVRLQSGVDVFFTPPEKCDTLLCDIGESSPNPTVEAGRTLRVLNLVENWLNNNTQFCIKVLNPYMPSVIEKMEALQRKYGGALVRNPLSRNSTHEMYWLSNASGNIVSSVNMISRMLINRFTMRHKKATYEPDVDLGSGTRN

The inhibition is the drop in the measured response relative to a control, in per cent. For orientation: CC50 means the concentration at which the toxic effect on the cells reaches its halfway point. A higher CC50 goes with lower toxicity to the cells. A word on the IC50: it is the concentration at which inhibition is half-maximal. A high value points to lower potency. As for `O=c1cc(-c2ccccc2)oc2c(Br)c(O)c(O)c(O)c12` [8-bromobaicalein], the Cytotoxicity to cells entry with various cell lines was “not toxic”. Also, the inhibition at 100 µM against DENV-2 MTase was less than 50%. Moreover, the CC50 at 48 h is 97.9 ± 7.06 µM in series [1] and greater than 100 µM in series [2]. The 50% inhibitory concentration (IC50) at DENV2 NS5/RdRp came to 34.9 µM.
